Measurements published in patent US11524938B2, “Aromatic sulfonamide derivatives” (Bayer Pharma Aktiengesellschaft, priority 2016, dated 2022).

Tests used:
human P2X4 [1] = molecular target: T1, human P2X4 (Homo sapiens, UniProt Q99571); test: Human P2X4 HEK Cell FLIPR Assay; type: cell-based; conditions: HEK293, HEK293 cells, agonist Bz-ATP at EC80; percentage of maximal inhibition; read-out: Human P2X4 HEK Cells (FLIPR Assay) avg Efficacy [%]
T1 sequence (Q99571 1-388): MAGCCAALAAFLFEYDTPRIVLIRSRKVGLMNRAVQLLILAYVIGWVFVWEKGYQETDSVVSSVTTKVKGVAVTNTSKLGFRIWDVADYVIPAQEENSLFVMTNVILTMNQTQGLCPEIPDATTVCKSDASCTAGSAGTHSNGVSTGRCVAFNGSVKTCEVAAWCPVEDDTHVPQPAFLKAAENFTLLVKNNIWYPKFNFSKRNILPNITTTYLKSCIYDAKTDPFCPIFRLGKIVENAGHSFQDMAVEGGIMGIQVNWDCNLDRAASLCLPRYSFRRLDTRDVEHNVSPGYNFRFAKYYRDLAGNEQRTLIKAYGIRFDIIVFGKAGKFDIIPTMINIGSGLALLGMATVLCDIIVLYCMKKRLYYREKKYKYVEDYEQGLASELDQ
In short: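 HEK293 cells stably expressing human P2X4, Fluo8-AM loaded 30 min at 37° C, then compound 30 min at room temperature (0.5% DMSO, pH 7.4 buffer with 1.8 mM CaCl2). Bz-ATP at its daily-determined EC80 added; calcium fluorescence read over 120 sec; IC50 from peak RFU normalized to agonist control, triplicates.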

human P2X4 [2] = molecular target: T1, human P2X4; test: FLIPR assay, human P2X4 1321N1 Astrocytoma cells; type: cell-based; conditions: agonist Mg-ATP 0.5 μM (EC80)
Experimental: 1321N1 Astrocytoma cells stably expressing human P2X4 or rat P2X4 or mouse P2X4 were plated in Collagen I TC-treated microplate at a seeding density of 10000 cells/well and incubated overnight. P2X4 function was assessed by measuring intracellular calcium changes using the calcium-chelating dye Fluo8-AM (Molecular Devices) on a fluorescent imaging plate reader (FLEX/FLIPR station; Molecular Devices). On the day of the assay, the medium was removed and the cells were incubated for 30 min at 37 °C and 5% CO2 in 30 μL of dye buffer (Hank's balanced salt solution, 10 mM HEPES, 1.8 mM CaCl2, 1 mM MgCl2, 2 mM probenecid, 5 mM D-glucose monohydrate, 5 μM Fluo8-AM, pH=7.4). Compounds diluted in probenecid buffer (Hank's balanced salt solution, 10 mM HEPES, 1.8 mM CaCl2, 1 mM MgCl2, 2 mM probenecid, 5 mM D-glucose monohydrate, pH=7.4) were added in a volume of 10 μL and allowed to incubate for 30 min at room temperature. The final assay DMSO concentration was 0.25%. The agonist, Mg-ATP (Sigma), was added in a volume of 10 μL at a concentration representing the EC80 value. EC80 was determined to be 0.5 μM for human and mouse P2X4 and 5 μM for rat P2X4. The fluorescence was measured for an interval of 120 sec at 2 sec intervals. The excitation and emission wavelengths used to monitor fluorescence were 470-495 nm and 515-575 nm, respectively. The data was analyzed based on the increase in peak relative fluorescence units (RFU) compared to the basal fluorescence and the data was normalized to the agonist control. The compounds were tested in triplicates per plate and mean values were plotted in Excel XLFit to determine IC50 values, percentage of maximal inhibition and the Hill coefficients.

Emax (human P2X4 [1]) [%] | Human P2X4 1321N1 Astrocytoma Cells (FLIPR Assay) avg Efficacy [%] (human P2X4 [2]) | SMILES
96 | 83 | N#Cc1cnn(-c2ccc(NC(=O)Cc3ccccc3Cl)cc2S(N)(=O)=O)c1 [Example 39, 2-(2-Chlorophenyl)-N-[4-(4-cyano-1H-pyrazol-1-yl)-3-sulfamoylphenyl]acetamide]
95 | 80 | NS(=O)(=O)c1cc(NC(=O)Cc2ccccc2Cl)ccc1-c1cnn(C(F)F)c1 [Example 326, 2-(2-Chlorophenyl)-N-{4-[1-(difluoromethyl)-1H-pyrazol-4-yl]-3-sulfamoylphenyl}acetamide]
